Experiments:
[1] = tested on: IL-6; assay: Reduction of LPS-induced interleukin-6 levels in mice; assay type: in vivo; conditions: 300 μg/mouse; LPS treated mice; vs untreated control mice
Procedure: Balb/c mice were grouped and treated as described in Example III, above. Blood samples were obtained from the orbital sinus at various times up to six hr and serum was collected and diluted as described above. A 100 μl aliquot was assayed for IL-6 levels using an IL-6-specific ELISA by a modification of the method of Starnes et al., J. Immunol. 145:4185-4194 (1990), which is incorporated herein by reference.
The mean (±SEM) IL-6 level in six mice from each group was determined and the percent reduction in IL-6 was calculated.

[2] = tested on: inducible nitric oxide synthase (INOS); assay: Inducible nitric oxide synthase induction in rat aorta smooth muscle cells (cGMP RIA); assay type: cell-based; conditions: RASMC induced with LPS, IL-1β or TNF-α; EX-2 0.1 or 1 μM
Procedure: Rat aorta smooth muscle cells (RASMC) were isolated from male rats (325-350 g) using the previously published procedures of Gelsterfer et al., Circ. Res. 62:749-756 (1988), which is incorporated herein by reference. Cells were positively identified as smooth muscle cells by indirect immunofluorescent staining for anti-α-actin, using a mouse anti-α-actin antibody and anti-mouse IgG FITC conjugate. Cells were grown in T-75 tissue culture flasks (Corning Delbelco's Glass, Inc.; Corning, N.Y.) in 50% F12 and 50% Delbelco's Modified Eagle Medium (DMEM) supplemented with 10% bovine serum, 0.2 g/l L-glutamine, penicillin (100 U/ml) and streptomycin (0.1 mg/ml).
Cells between passages 1-5 were pretreated with one of the following: vehicle, LPS (1 μg/ml), IL-1β (10 U/ml), or TNF-α (100 U/ml) for 6 hr. […] Accumulation of cGMP was determined following exposure to 0.3 mM 3-isobutyl-1-methyl xanthine (IBMX) in the presence or absence of 1 mM L-arginine. […] The HCl extract was analyzed for cGMP by RIA and the NaOH-solubilized cell remnants were used for protein determination.
Male Sprague-Dawley rats were anesthetized with 55 mg/kg pentobarbital IP. […] RASMC were incubated with plasma from control or EX-2-treated animals and the ability of plasma components to inhibit the induction of INOS by LPS or IL-1β was determined as above. […]

[3] = tested on: male Sprague-Dawley rats; assay: Cyclosporine-induced nephrotoxicity; assay type: in vivo; conditions: for extracellular fluid volumes (ECF): second study, control 27.6±1.9, CsA and vehicle 27.5±1.7
Procedure: In the first study, male Sprague-Dawley rats (n=43) with a weight range of 240-290 g at the initiation of the cyclosporine A (CsA) treatment were divided into 4 weight matched groups. The groups were as follows: (1) Control: no CsA, no EX-2, treatment only with CsA vehicle (PBS) PO and EX-2 vehicle (also PBS) IP; (2) CsA: treatment with CsA (50 mg/kg in PBS administered PO daily at 0830 hr for 9 days) and IP injections of PBS (Ex-2 vehicle); (3) CsA and 50 μg: CsA treatment identical to group 2 with the addition of EX-2 (50 μg/kg IP administered daily at 0800 and 1700 hr in EX-2 vehicle); and (4) CsA and 500 μg: CsA treatment identical to groups 2 and 3, and EX-2 treatment protocol similar to group 3 except that the dose of EX-2 was 500 μg/kg BW. After deep anesthesia was assured, the rats were cannulated in the trachea (PE 240) jugular vein, femoral artery, and bladder (PE 50 for the previous 3 cannulations).After cannulation, infusion of ^3 H-inulin was initiated 50 min prior to the measurement period to assess glomerular filtration rate, renal blood flow and plasma flow. Renal blood flow was determined by the inulin extraction technique. At the end of the study, the kidneys were removed for histological analysis.
In the second study, male Sprague-Dawley rats (n=31) with a weight range of 240-290 g at the time of initiation of the cyclosporine treatment were divided into 4 weight-matched groups. The time course and protocol of this study matched the first study with the following exceptions: (1) The daily dose of CsA was reduced to 30 mg/kg and was administered subcutaneously (SC) and (2) the 50 μ/kg dose of EX-2 was substituted with a twice daily dose of 200 μg/kg. The 500 μg/kg dose of EX-2 was repeated in this study. Renal hemodynamics were determined and extracellular fluid volumes were also assessed.
In the second studio, where extracellular fluid volumes (ECF) were measured, there were no differences in ECF among control and treatment groups (27.6±1.9 in control, 27.5±1.7 in CsA and vehicle, 26.2±0.9 in CsA+200 μg/kg EX-2, and 25.7±1.4% in CsA+500 μg/kg EX-2).
The results from the two experiments are shown in FIGS. 1a and 1b and provide evidence that a cytokine restraining peptide of the present invention reduces cyclosporine-induced nephrotoxicity and the damage caused thereby.

**Q.** For “Ac-Nle-Gln-His-(D)Phe-Arg-(D)Trp-Gly-NH2 [EX-2]”, which “Reduction in IL-6 levels” value [1] is on record?
**A.** 60%

**Q.** And the “INOS: cGMP (pmol/100 mg/15 min), % Reduction of induced increase” value [2]?
**A.** 60%

**Q.** And the “changes in ECF as a result of treatment” value ([3]; CsA-treated rats)?
**A.** no changes

**Q.** And the renal blood flow ([3]; CsA-treated rats)?
**A.** not different from control

**Q.** What about the “urinary protein excretion compared to CsA-treated rats” value ([3]; CsA-treated rats) of the same substance?
**A.** did not increase

**Q.** And the “urinary protein excretion normalized to glomerular filtration rate” value ([3]; CsA-treated rats)?
**A.** trend to decreased

**Q.** And the “GFR compared to CsA and vehicle controls” value ([3]; both studies, CsA-treated rats)?
**A.** significantly increased

**Q.** And the “extracellular fluid volumes (ECF)” value ([3]; CsA 30 mg/kg SC + 200 μg/kg EX-2 twice daily)?
**A.** 26.2±0.9%

**Q.** And the “extracellular fluid volumes (ECF)” value ([3]; CsA 30 mg/kg SC + 500 μg/kg EX-2 twice daily)?
**A.** 25.7±1.4%

From US5760001A, “Cytokine restraining agents and methods of use in pathologies and conditions associated with altered cytokine levels” (Trega Biosciences, Inc., priority 1995, dated 1998)
